Test results: PMC7365463, “Oxfendazole mediates macrofilaricidal efficacy against the filarial nematode Litomosoides sigmodontis in vivo and inhibits Onchocerca spec. motility in vitro” (PLoS Neglected Tropical Diseases, 2020)
Like-named read-outs stand apart in the source and are kept apart here.

Key:
[1] = system: Acanthocheilonema viteae / Brugia pahangi; design: method as in Court 1988 (Ref. 10); details: 15Ad A.v. (SC) +15Ad B.p. (IP), jirds, 5 days p.i., necropsy 5 weeks p.t., ref Court 1988 (Ref. 10), cited from earlier work
Litomosoides sigmodontis [2] = system: Litomosoides sigmodontis; design: method as in Reddy 1983 (Ref. 15); details: L3 (mite), Mastomys natalensis, patent phase, necropsy 43 days p.t., ref Reddy 1983 (Ref. 15), cited from earlier work
[3] = system: Onchocerca lienalis microfilariae; assay: O. lienalis microfilariae 5-day motility assay; details: 120 h
Litomosoides sigmodontis [4] = assay: Patent L. sigmodontis infection in jirds (adult worms, microfilaremia, embryogenesis); details: jirds, SC 2 mg/kg QD for 5 days
Brugia pahangi [5] = system: Brugia pahangi; design: method as in de Burbure 1986 (Ref. 9); details: 200L3 (SC), Mastomys, food 56-82mg/kg, 7 days p.i., necropsy 177 days p.t., ref de Burbure 1986 (Ref. 9), cited from earlier work
[6] = system: Onchocerca gutturosa adult male worms; assay: O. gutturosa adult male worm 5-day motility assay
Brugia pahangi [7] = details: cited from earlier work
Brugia pahangi [8] = system: Brugia pahangi; design: method as in Reddy 1983 (Ref. 15); details: L3 (SC), Mastomys natalensis, patent phase, necropsy 43 days p.t., ref Reddy 1983 (Ref. 15), cited from earlier work
[9] = system: Onchocerca gutturosa adult male worms; assay: O. gutturosa adult worm MTT/formazan viability assay; details: 120 h

clearance of microfilariae from peripheral blood (Litomosoides sigmodontis [4]; week 4 after treatment start): all microfilariae were cleared
Structure (SMILES): COC(=O)Nc1nc2cc(C(=O)c3ccc(F)cc3)ccc2[nH]1 [flubendazole]
Reduction of worm burden ([1]; SC 50mg/kg 5 cons. days): 50%
Reduction of worm burden ([1]; SC 100mg/kg 5 cons. days): 100%
Reduction of worm burden (Litomosoides sigmodontis [2]; SC 100mg/kg 5 cons. days): 100%
Reduction of worm burden (Litomosoides sigmodontis [2]; per os 150mg/kg 5 cons. days): 0%
activity against microfilariae compared to oxfendazole [3]: even less active
adult worms at necropsy (Litomosoides sigmodontis [4]; necropsy 16 weeks post-treatment): no adult worms were recovered
Reduction of worm burden (Brugia pahangi [5]; 7 days ad.lib.): 100%
Reduction of worm burden (Brugia pahangi [5]; 14 days ad. lib.): 100%
Motility Reduction (%) ([6]; 1.25 x 10^-5 M, 24 h): 10%
Motility Reduction (%) ([6]; 1.25 x 10^-5 M, 48 h): 12%
Motility Reduction (%) ([6]; 1.25 x 10^-5 M, 72 h): 33%
Motility Reduction (%) ([6]; 1.25 x 10^-5 M, 96 h): 44%
Motility Reduction (%) ([6]; 1.25 x 10^-5 M, 120 h): 51%
Motility Reduction (%) ([6]; 3.1 x 10^-6 M, 24 h): 4%
Motility Reduction (%) ([6]; 3.1 x 10^-6 M, 48 h): 5%
Motility Reduction (%) ([6]; 3.1 x 10^-6 M, 72 h): 16%
Motility Reduction (%) ([6]; 3.1 x 10^-6 M, 96 h): 38%
Motility Reduction (%) ([6]; 3.1 x 10^-6 M, 120 h): 40%
Motility Reduction (%) ([6]; 5.0 x 10^-5 M, 24 h): 23%
Motility Reduction (%) ([6]; 5.0 x 10^-5 M, 48 h): 22%
Motility Reduction (%) ([6]; 5.0 x 10^-5 M, 72 h): 36%
Motility Reduction (%) ([6]; 5.0 x 10^-5 M, 96 h): 38%
Motility Reduction (%) ([6]; 5.0 x 10^-5 M, 120 h): 54%
Motility Reduction (%) ([6]; 7.8 x 10^-7 M, 24 h): 6%
Motility Reduction (%) ([6]; 7.8 x 10^-7 M, 48 h): 9%
Motility Reduction (%) ([6]; 7.8 x 10^-7 M, 72 h): 13%
Motility Reduction (%) ([6]; 7.8 x 10^-7 M, 96 h): 33%
Motility Reduction (%) ([6]; 7.8 x 10^-7 M, 120 h): 26%
Reduction of worm burden (Brugia pahangi [7]; 15Ad (IP), jirds, SC 0.7mg/kg 5 cons. days, ref Denham 1979 (Ref. 4)): 40%
Reduction of worm burden (Brugia pahangi [7]; 15Ad (IP), jirds, SC 3.1mg/kg x1, ref Denham 1979 (Ref. 4)): 23%
Reduction of worm burden (Brugia pahangi [7]; 15Ad (IP), jirds, SC 5mg/kg 5 cons. days, 4 days p.i., necropsy 5 weeks p.t., ref Surin 1990 (Ref. 11)): 100%
Reduction of worm burden (Brugia pahangi [7]; 15Ad (IP), jirds, SC 6.3-12.5 mg/kg x1, ref Denham 1979 (Ref. 4)): 70-80%
Reduction of worm burden (Brugia pahangi [7]; 15Ad (IP), jirds, SC 10-50-100mg/ml 5 cons. days, ref Denham 1979 (Ref. 4)): 96-100%
Reduction of worm burden (Brugia pahangi [7]; 15Ad (IP), jirds, SC 25-200mg/kg x1, ref Denham 1979 (Ref. 4)): >98%
Reduction of worm burden (Brugia pahangi [7]; 50L3 (IP), jirds, SC 5mg/kg 5 cons. days, 70 days p.i., necropsy 5 weeks p.t., ref Surin 1990 (Ref. 11)): 98.5%
Reduction of worm burden (Brugia pahangi [7]; 50L3 (IP), jirds, SC 25mg/kg 5 cons. days, 70 days p.i., necropsy 5 weeks p.t., ref Surin 1990 (Ref. 11)): 100%
Reduction of worm burden (Brugia pahangi [7]; 50L3 (IP), jirds, SC 25mg/kg x1, prepatent phase, necropsy 3-9 days p.t., ref Denham 1979 (Ref. 4)): no reduction
Reduction of worm burden (Brugia pahangi [7]; 50L3 (IP), jirds, SC 25mg/kg x1, prepatent phase, necropsy 12-24 days p.t., ref Denham 1979 (Ref. 4)): 80%
Reduction of worm burden (Brugia pahangi [7]; 50L3 (IP), jirds, SC 25mg/kg x1, prepatent phase, necropsy 27-36 days p.t., ref Denham 1979 (Ref. 4)): 100%
Reduction of worm burden (Brugia pahangi [7]; prophylactic, 15Ad (IP), jirds, SC 100mg/kg x1, 2,3,4,5 weeks bef. i., necropsy 35 days pi, ref Denham 1980 (Ref. 1)): 100%
Reduction of worm burden (Brugia pahangi [7]; prophylactic, 15Ad (IP), jirds, SC 100mg/kg x1, 6,9,12 weeks bef. i., necropsy 35 days pi, ref Denham 1980 (Ref. 1)): 92-100%
Reduction of worm burden (Brugia pahangi [7]; prophylactic, 15Ad (IP), jirds, SC 100mg/kg x1, 24 weeks bef. i., necropsy 35 days pi, ref Denham 1980 (Ref. 1)): 9%
Reduction of worm burden (Brugia pahangi [7]; prophylactic, 15Ad (IP), jirds, SC 100mg/kg x1, 2 days bef. i., necropsy 35 days pi, ref Denham 1980 (Ref. 1)): 100%
Reduction of worm burden (Brugia pahangi [7]; prophylactic, 50L3, jirds, SC 25mg/kg x1, 137 days bef. i., necropsy 9-10 weeks p.t., ref Chusattayanond 1984 (Ref. 2)): 8%
Reduction of worm burden (Brugia pahangi [8]; SC 100mg/kg 5 cons. days): 100%
Reduction of worm burden (Brugia pahangi [8]; per os 150mg/kg 5 cons. days): 20%
MTT Reduction (%) ([9]; 1.25 x 10^-5 M): 2%
MTT Reduction (%) ([9]; 3.1 x 10^-6 M): 3%
MTT Reduction (%) ([9]; 5.0 x 10^-5 M): 20%
MTT Reduction (%) ([9]; 7.8 x 10^-7 M): 3%
